# The source made the active and inactive calls. No cut-off for these calls is given here.
# How the values were obtained:
# Lepidium sativum = assay: Phytohormonal activity against Lepidium sativum assessed as inhibition of seed germination at 100 to 1000 uM after 2 days relative to control; assay type: functional, organism-based
# Oryza sativa = assay: Phytohormonal activity against Oryza sativa (rice) seedlings assessed as growth inhibition of second leaf sheath at 1 to 300 uM after 5 days relative to control; assay type: functional, organism-based
SMILES,inhibition (Lepidium sativum),growth inhibition (GI) (Oryza sativa)
CC/C=C\C[C@H]1[C@@H](CC(=O)OC)CC[C@@H]1O,Active,Active
CC/C=C\C[C@H]1[C@@H](CC(=O)O)CC[C@@H]1O,–,inactive
CC/C=C\C[C@H]1[C@@H](CC(=O)OC)CC[C@H]1O,Active,Active
CC/C=C\C[C@H]1C(=O)CC[C@@H]1CC(=O)OC (racemic),Active,Active
CC/C=C\C[C@@H]1[C@@H](CC(=O)OC)CC[C@H]1O,inactive,inactive
CC/C=C\C[C@@H]1C(=O)CC[C@@H]1CC(=O)OC,Active,Active
CC/C=C\C[C@H]1C(=O)CC[C@@H]1CC(=O)O,–,Active
CC/C=C\C[C@@H]1[C@@H](CC(=O)OC)CC[C@@H]1O,inactive,inactive

# — ChEMBL document CHEMBL3045396, “Easy Preparation of Methyl 7-epi-Jasmonate and Four Stereoisomers of Methyl Cucurbate, and Assessment of the Stereogenic Effect of Jasmonate on Phytohormonal Activities” (Biosci Biotechnol Biochem, 1999)
